Results taken from article PMC12530851, “Design, synthesis, and apoptotic antiproliferative activity of novel dihydropyrimidine-5-carbonitrile/1,2,4-oxadiazole hybrids as dual EGFR/VEGFR-2 inhibitors endowed with antioxidant activity” (RSC Advances, 2025).

How the values were obtained:
caspase-3 = assay: Caspase-3 activation assay in MCF-7 cells; type: cell-based, human; conditions: vs untreated control
caspase-8 = assay: Caspase-8 activation assay in MCF-7 cells; type: cell-based, human
Method: (§1) Compounds10k and 10l were tested as caspases-3, 8, 9, Bax and p53 activators and as down-regulators of the anti-apoptotic protein Bcl2 against the MCF-7 breast cancer cell line.[41] Appendix A gives more details.
(§2) To elucidate the apoptotic processes of compounds 10k and 10l, whether via the intrinsic or extrinsic pathway, their impacts on caspase-8 and caspase-9 were evaluated. […] This signifies the activation of both intrinsic and extrinsic pathways (Table 5).
(§3) 4.2.6. Caspase-8/9 activation assay
(§4) Cells were obtained from American Type Culture Collection, cells were grown in RPMI 1640 containing 10% fetal bovine serum at 37°C, stimulated with the compounds to be tested for caspase 8/9, and lysed with Cell Extraction Buffer. This lysate was diluted in Standard Diluent Buffer over the range of the assay and measured for human active caspase-8/9 content. (Cells are Plated in a density of 1.2 – 1.8 × 10,000 cells/well in a volume of 100µl complete growth medium + 100 ul of the tested compound per well in a 96-well plate for 24 hours before the enzyme assay). The absorbance of each microwell was read on a spectro-photometer at 450 nm. […]

caspase-9 = assay: Caspase-9 activation assay in MCF-7 cells; type: cell-based, human
Method: as §1, §2, §3, §4

[1] = Cell viability assay (MTT) on normal MCF-10A cells; type: cell-based; conditions: human, MCF-10A mammary gland epithelial cells (normal cell line), MCF-10A normal cells, four-day incubation
Method: The impact of novel compounds 10a–l on the viability of a normal human cell line, specifically human mammary gland epithelial cells (MCF-10A), was assessed to ascertain the safety of the newly synthesized compounds. The MTT test was employed to assess the cell viability of the novel compounds after a four-day incubation with MCF-10A cells.[29,37] Refer to Appendix A for more experimental details.
The effect of new compounds 10a–l on the viability of a normal human cell line, namely human mammary gland epithelial cells (MCF-10A), was evaluated to determine the safety of the newly synthesized compounds.
4.2. Biological evaluation
4.2.1 Cell Viability assay (MTT assay)
MTT assay was performed to investigate the effect of the synthesized compounds on mammary epithelial cells (MCF-10A). The cells were propagated in medium consisting of Ham's F-12 medium/ Dulbecco's modified Eagle's medium (DMEM) (1:1) supplemented with 10% foetal calf serum, 2 mM glutamine, insulin (10 μg/mL), hydrocortisone (500 ng/mL) and epidermal growth factor (20 ng/mL). Trypsin ethylenediamine tetra acetic acid (EDTA) was used to passage the cells after every 2-3 days. 96-well flat-bottomed cell culture plates were used to seed the cells at a density of 10^4 cells mL-1. The medium was aspirated from all the wells of culture plates after 24 h followed by the addition of synthesized compounds (in 200 μL medium to yield a final concentration of 0.1% (v/v) dimethyl sulfoxide) into individual wells of the plates. Four wells were designated to a single compound. The plates were allowed to incubate at 37°C for 96 h. Afterwards, the medium was aspirated and 3-[4,5-dimethylthiazol-2-yl]-2,5-diphenyltetrazolium bromide (MTT) (0.4 mg/mL) in medium was added to each well and subsequently incubated for 3 h. The medium was aspirated and 150 μL dimethyl sulfoxide (DMSO) was added to each well. The plates were vortexed followed by the measurement of absorbance at 540 nm on a microplate reader. […]

A-549 (lung cancer) = assay: Antiproliferative assay, A-549; type: cell-based; conditions: Homo sapiens, A549; A-549 lung cancer cells; read-out: Antiproliferative activity IC50 ± SEM, A-549
Description: (§5) The dose–response experiments established the IC50 values for the new compounds. The given findings were obtained from at least two distinct studies, each comprising three repeats per concentration. Appendix A (SI File) provides experimental details.[38,39]
(§6) The MTT assay[43] was utilized to assess the antiproliferative effects of compounds 10a–l on four human cancer cell lines: HT-29 (colon cancer), Panc-1 (pancreatic cancer), A-549 (lung cancer), and MCF-7 (breast cancer). […]
(§7) 4.2.2. Assay for antiproliferative effect
(§8) To explore the antiproliferative potential of compounds propidium iodide fluorescence assay was performed using different cell lines such as Panc-1 (pancreas cancer cell line), MCF-7 (breast cancer cell line), HT-29 (colon cancer cell line) and A-549 (epithelial cancer cell line), respectively. To calculate the total nuclear DNA, a fluorescent dye (propidium iodide, PI) is used which can attach to the DNA, thus offering a quick and precise technique. PI cannot pass through the cell membrane and its signal intensity can be considered as directly proportional to quantity of cellular DNA. Cells whose cell membranes are damaged or have changed permeability are counted as dead ones. The assay was performed by seeding the cells of different cell lines at a density of 3000-7500 cells/well (in 200μl medium) in culture plates followed by incubation for 24h at 37 °C in humidified 5%CO2/95% air atmospheric conditions. The medium was removed; the compounds were added to the plates at 10 μM concentrations (in 0.1% DMSO) in triplicates, followed by incubation for 48h. DMSO (0.1%) was used as control. After incubation, medium was removed followed by the addition of PI (25 μl, 50μg/mL in water/medium) to each well of the plates. At - 80 °C, the plates were allowed to freeze for 24 h, followed by thawing at 25 °C. A fluorometer (Polar-Star BMG Tech) was used to record the readings at excitation and emission wavelengths of 530 and 620 nm for each well. The percentage cytotoxicity of compounds was calculated using […]
(§9) Where ATC= Absorbance of treated cells and AC= Absorbance of control. Erlotinib was used as positive control in the assay. […]

MCF-7 (breast cancer) = assay: Antiproliferative assay, MCF-7; type: cell-based, human; conditions: Homo sapiens, MCF7; MCF-7 breast cancer cells; read-out: Antiproliferative activity IC50 ± SEM, MCF-7
Description: as §5, §6, §7, §8, §9

[2] = system: Panc-1 (pancreatic cancer); assay: Antiproliferative assay, Panc-1; type: cell-based; conditions: Homo sapiens; Panc-1 pancreatic cancer cells; read-out: Antiproliferative activity IC50 ± SEM, Panc-1
Description: as §5, §6, §7, §8, §9

HT-29 (colon cancer) = assay: Antiproliferative assay, HT-29; type: cell-based; conditions: Homo sapiens; HT-29 colon cancer cells; read-out: Antiproliferative activity IC50 ± SEM, HT-29
Description: as §5, §6, §7, §8, §9

[3] = system: four human cancer cell lines (A-549, MCF-7, Panc-1, HT-29); assay: Antiproliferative assay, average over four cancer cell lines; type: cell-based; conditions: for GI50: Homo sapiens, average IC50 across A-549, MCF-7, Panc-1, HT-29; for Reduction in antiproliferative potency relative to 10k (GI50): less potent than 10k
Method: The given findings were obtained from at least two distinct studies, each comprising three repeats per concentration. Appendix A (SI File) provides experimental details.[38,39] […]
as §7
To explore the antiproliferative potential of compounds propidium iodide fluorescence assay was performed using different cell lines such as Panc-1 (pancreas cancer cell line), MCF-7 (breast […]
respectively. To calculate the total nuclear DNA, a fluorescent dye (propidium iodide, PI) is used which can attach to the DNA, thus offering a quick and precise technique. PI cannot pass through the cell membrane and its signal intensity can be considered as directly proportional to quantity of cellular DNA. Cells whose cell membranes are damaged or have changed permeability are counted as dead ones. The assay was performed by seeding the cells of different cell lines at a density of 3000-7500 cells/well (in 200μl medium) in culture plates followed by incubation for 24h at 37 °C […]
The medium was removed; the compounds were added to the plates at 10 μM concentrations (in 0.1% DMSO) in triplicates, followed by incubation for 48h. DMSO (0.1%) was used as control. After incubation, medium was removed followed by the addition of PI (25 μl, 50μg/mL in water/medium) to each well of the plates. At - 80 °C, the plates were allowed to freeze for 24 h, followed by thawing at 25 °C. A fluorometer (Polar-Star BMG Tech) was used to record the readings at excitation and emission wavelengths of 530 and 620 nm for each well. The percentage cytotoxicity of compounds was calculated using […]
Where ATC= Absorbance of treated cells and AC= Absorbance of control. […]
positive control in the assay. […]

VEGFR-2 = VEGFR-2 (Homo sapiens, UniProt P35968); assay: VEGFR-2 inhibitory assay
Method: The majority of signals detected by antiphosphotyrosine antibody were from EGFR because the enzyme preparation contained low impurities.
Prepare all the solutions using autoclaved, deionized water and analytical grade reagents. Prepare
and store all the reagents at room temperature (unless indicated otherwise). EDTA solution (0.5
M, pH 8.0): add 95 mL ultra-pure water to 14.612 g EDTA, adjust the pH to 8.0 using NaOH
solution, add 5 mL ultra-pure water; 1×Kinase Assay Buffer: add 25 mL HEPES solution (1 M),
water, adjust pH to 7.5 and constant volume to 500 mL using ultrapure water; 4×Stop solution (40
mM): Mix 0.8 mL of the foregoing EDTA solution, 1 mL 10×Detection Buffer and 8.2 mL ultra-
pure water; 1×Detection Buffer: Mix 1 mL 10×Detection Buffer with 9 mL water; 4×VEGFR
μM) was added to 624 μL 1×Kinase Assay Buffer and mixed; 4×ULight™-labeled JAK1
concentration 5 μM) was added to 576 μL 1×Kinase Assay Buffer and mixed; 4×ATP Solution
2×substrate/ATP Mix: 560 μL foregoing 4×ULight™-labeled JAK1 and 560 μL 4×ATP solution
and mixed (prepared before use). The assays used an ULight-labeled peptide substrate and a
Europium-W1024-labeled antiphosphotyrosine antibody. The VEGFR-2 was purchased from
Carna Biosciences, Inc. (New York, USA). The 384-well plates were obtained from PerkinElmer.
Compounds were dissolved in DMSO and diluted to 11 concentrations at a tripling rate from 2.500
5 μL 2×VEGFR-2 kinase solution (0.5 nM)
was added to 384-well plates homogeneous mixing and pre-reaction at room temperature for 30
min. Next, 2.5 μL 4×Ultra ULightTM-JAK-1(Tyr1023) Peptide (200 nM)/ATP (40 μM) was
added to the corresponding wells of a 384-well plate. Negative control: 2.5 μL/well 4×substrate/ATP mixture and 7.5 μL 1×kinase assay buffer in 384-well plate well. Positive control:
μL/well 2×VEGFR-2 kinase solution was added to the 384-well plate, The final concentration of DMSO in the mixing system was 4%. After incubation at room temperature and dark for 60 min, 5 μL 4×stop solution was added to corresponding wells to react for 5 min and then 5 μL 4×detection mix was added to the corresponding wells of a 384-well plate. The mixture was centrifugally mixed and stayed for 60 min at room temperature for color development. The plate
was read using an Envision plate reader. The inhibition rate (%) = (positive well reading-
compound well reading)/(positive well reading-negative well reading)×100. The corresponding IC50 values were calculated using GraphPad Prism 5.0.

EGFR = EGFR (Homo sapiens, UniProt P00533); assay: EGFR inhibitory assay (EGFR-TK test)
EGFR, sequence (P00533 669-1210): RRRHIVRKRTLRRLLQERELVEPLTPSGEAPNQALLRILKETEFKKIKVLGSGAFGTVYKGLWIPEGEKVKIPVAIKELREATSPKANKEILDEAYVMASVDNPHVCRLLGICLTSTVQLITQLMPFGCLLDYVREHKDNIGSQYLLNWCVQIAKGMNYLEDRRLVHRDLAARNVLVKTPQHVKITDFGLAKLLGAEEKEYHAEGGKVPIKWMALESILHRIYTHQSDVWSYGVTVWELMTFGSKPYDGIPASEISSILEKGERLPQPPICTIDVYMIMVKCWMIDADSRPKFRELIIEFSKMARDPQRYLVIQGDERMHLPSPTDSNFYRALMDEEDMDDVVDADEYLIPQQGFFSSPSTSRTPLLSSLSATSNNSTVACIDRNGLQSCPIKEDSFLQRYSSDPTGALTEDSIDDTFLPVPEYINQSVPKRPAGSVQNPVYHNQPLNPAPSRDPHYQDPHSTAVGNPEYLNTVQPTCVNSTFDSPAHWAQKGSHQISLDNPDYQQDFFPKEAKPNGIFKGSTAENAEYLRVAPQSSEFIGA
Method: Baculoviral expression vectors including pBlueBacHis2B and pFASTBacHTc were used
5ʹ upstream to the EGFR sequence comprised a sequence that encoded (His)6. Sf-9 cells were infected for 72h for protein expression. The pellets of Sf-9 cells were solubilized in a buffer containing sodium vanadate (100 μM), aprotinin (10 μg/mL), triton (1%), HEPES
buffer(50mM), ammonium molybdate (10 μM), benzamidine HCl (16 μg/mL), NaCl (10 mM),leupeptin (10 μg/mL) and pepstatin (10 μg/mL) at 0°C for 20 min at pH 7.4, followed by centrifugation for 20 min. To eliminate the nonspecifically bound material, a Ni-NTA super flow packed column was used to pass through and wash the crude extract supernatant first with 10mM and then with 100 mM imidazole. Histidine-linked proteins were first eluted with 250 and then with 500 mM imidazole subsequent to dialysis against NaCl (50 mM), HEPES (20 mM), glycerol (10%) and 1 μg/mL each of aprotinin, leupeptin and pepstatin for 120 min. The purification was performed either at 4 °C or on ice. To record autophosphorylation level, EGFR kinase assay was carried out on the basis of DELFIA/Time-Resolved Fluorometry. The compounds were first
dissolved in DMSO absolute, subsequent to dilution to appropriate concentration using HEPES
(25 mM) at pH 7.4. Each compound (10 μL) was incubated with recombinant enzyme (10 μL, 5
ng for EGFR, 1:80 dilution in 100 mM HEPES) for 10 min at 25 °C, subsequent to the addition of
5X buffer (10 μL, containing 2 mM MnCl2, 100 μM Na3VO4, 20 mM HEPES and 1 mM DTT)
and ATP-MgCl2 (20 μL, containing 0.1 mM ATP and 50 mM MgCl2) and incubation for 1h. The
negative and positive controls were included in each plate by the incubation of enzyme either with
or without ATP-MgCl2. The liquid was removed after incubation and the plates were washed
thrice using a wash buffer. The Europium-tagged antiphosphotyrosine antibody (75 μL, 400 ng)
was added to each well followed by incubation of 1h and then washing of the plates using buffer.
The enhancement solution was added to each well and the signal was recorded at excitation and
The autophosphorylation percentage inhibition by compounds was calculated using the following equation:
calculated. The majority of signals detected by antiphosphotyrosine antibody were from EGFR because the enzyme preparation contained low impurities.

VEGFR-2, sequence (P35968 20-1356): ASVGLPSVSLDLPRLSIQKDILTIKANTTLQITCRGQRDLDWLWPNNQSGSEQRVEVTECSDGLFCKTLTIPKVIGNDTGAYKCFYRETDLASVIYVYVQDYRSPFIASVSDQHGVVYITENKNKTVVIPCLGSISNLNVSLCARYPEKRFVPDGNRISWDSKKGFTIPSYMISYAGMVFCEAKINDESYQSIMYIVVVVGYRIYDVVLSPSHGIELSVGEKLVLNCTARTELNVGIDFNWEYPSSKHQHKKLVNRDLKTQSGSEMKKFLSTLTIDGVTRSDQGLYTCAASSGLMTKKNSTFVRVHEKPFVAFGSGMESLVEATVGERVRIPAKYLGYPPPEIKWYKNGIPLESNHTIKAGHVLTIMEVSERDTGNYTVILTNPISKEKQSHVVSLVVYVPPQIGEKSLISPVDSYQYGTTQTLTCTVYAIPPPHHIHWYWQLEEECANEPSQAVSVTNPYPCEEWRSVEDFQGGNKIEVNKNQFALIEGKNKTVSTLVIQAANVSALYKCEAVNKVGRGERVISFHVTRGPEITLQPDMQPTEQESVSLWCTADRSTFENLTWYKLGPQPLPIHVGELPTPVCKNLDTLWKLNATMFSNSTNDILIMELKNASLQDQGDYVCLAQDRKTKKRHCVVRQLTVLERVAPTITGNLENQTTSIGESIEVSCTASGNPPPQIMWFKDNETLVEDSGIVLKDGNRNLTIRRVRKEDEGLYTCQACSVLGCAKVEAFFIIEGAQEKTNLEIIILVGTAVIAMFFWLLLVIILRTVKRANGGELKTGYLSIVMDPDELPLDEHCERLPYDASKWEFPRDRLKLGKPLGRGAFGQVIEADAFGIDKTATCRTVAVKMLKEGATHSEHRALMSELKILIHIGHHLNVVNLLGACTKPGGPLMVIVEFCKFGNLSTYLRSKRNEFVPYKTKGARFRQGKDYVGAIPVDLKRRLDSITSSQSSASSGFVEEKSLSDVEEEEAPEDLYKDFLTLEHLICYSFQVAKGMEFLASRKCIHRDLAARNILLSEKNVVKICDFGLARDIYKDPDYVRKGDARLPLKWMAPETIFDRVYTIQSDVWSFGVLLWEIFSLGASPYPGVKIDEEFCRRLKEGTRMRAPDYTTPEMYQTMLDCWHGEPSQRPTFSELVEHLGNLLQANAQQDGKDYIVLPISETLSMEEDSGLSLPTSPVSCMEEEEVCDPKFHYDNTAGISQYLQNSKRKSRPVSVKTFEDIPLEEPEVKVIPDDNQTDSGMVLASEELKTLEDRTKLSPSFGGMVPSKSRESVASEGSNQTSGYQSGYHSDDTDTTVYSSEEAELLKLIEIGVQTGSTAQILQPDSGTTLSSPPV

For `CN[C@@H]1C[C@H]2O[C@@](C)([C@@H]1OC)n1c3ccccc3c3c4c(c5c6ccccc6n2c5c31)C(=O)NC4` [Staurosporine, reference compound], the “Caspase-3 Fold change” value (caspase-3) was 7.00 fold, the “Caspase-8 Conc” value (caspase-8) was 1.90 ± 0.10 ng/mL and the “Caspase-8 Fold change” value (caspase-8; vs untreated control) was 19.00 fold. The “Caspase-9 Conc” value (caspase-9) was 20 ± 1 ng/mL and the “Caspase-9 Fold change” value (caspase-9; vs untreated control) was 20 fold.
For `N#Cc1c(-c2ccncc2)nc(SCc2nc(-c3ccccc3)no2)[nH]c1=O` [Compound 10d, 2-(((3-Phenyl-1,2,4-oxadiazol-5-yl)methyl)thio)-6-oxo-4-(pyridin-4-yl)-1,6-dihydropyrimidine-5-carbonitrile], the viability at 96 h, 50 µM [1] was 89%, the IC50 (A-549 (lung cancer)) was 56 ± 4 nM and the IC50 (MCF-7 (breast cancer)) was 51 ± 4 nM. It also gave an IC50 [2] of 53 ± 4 nM, an IC50 (HT-29 (colon cancer)) of 57 ± 4 nM and a GI50 [3] of 54 nM.
`N#Cc1c(-c2ccccc2)nc(SCc2nc(-c3ccccc3)no2)[nH]c1=O` [Compound 10a, 2-(((3-Phenyl-1,2,4-oxadiazol-5-yl)methyl)thio)-6-oxo-4-phenyl-1,6-dihydropyrimidine-5-carbonitrile] showed a viability at 96 h, 50 µM [1] of 91%, an IC50 (A-549 (lung cancer)) of 44 ± 3 nM and an IC50 (MCF-7 (breast cancer)) of 40 ± 3 nM. The IC50 [2] was 42 ± 3 nM, the IC50 (HT-29 (colon cancer)) was 45 ± 3 nM and the GI50 [3] was 43 nM.
In the case of `COc1ccc(-c2nc(SCc3nc(-c4ccccc4)no3)[nH]c(=O)c2C#N)cc1` [Compound 10j, 2-(((3-Phenyl-1,2,4-oxadiazol-5-yl)methyl)thio)-4-(4-methoxyphenyl)-6-oxo-1,6-dihydropyrimidine-5-carbonitrile], the viability at 96 h, 50 µM [1] is reported as 89%, the IC50 (A-549 (lung cancer)) is reported as 69 ± 5 nM and the IC50 (MCF-7 (breast cancer)) is reported as 65 ± 5 nM. It also gave an IC50 [2] of 68 ± 5 nM, an IC50 (HT-29 (colon cancer)) of 70 ± 5 nM and a GI50 [3] of 68 nM. The “Reduction in antiproliferative potency relative to 10k (GI50)” value [3] was 3 fold.
In the case of `N#Cc1c(-c2ccncc2)nc(SCc2nc(-c3ccc(Cl)cc3)no2)[nH]c1=O` [Compound 10e, 2-(((3-(4-Chlorophenyl)-1,2,4-oxadiazol-5-yl)methyl)thio)-6-oxo-4-(pyridin-4-yl)-1,6-dihydropyrimidine-5-carbonitrile], the viability at 96 h, 50 µM [1] is reported as 90%, the IC50 (A-549 (lung cancer)) is reported as 30 ± 2 nM and the IC50 (MCF-7 (breast cancer)) is reported as 25 ± 1 nM. For the same molecule, the IC50 [2] was 28 ± 1 nM, the IC50 (HT-29 (colon cancer)) was 30 ± 2 nM and the GI50 [3] was 28 nM. For the same molecule, the “Reduction in antiproliferative potency relative to 10k (GI50)” value [3] was 1.3 fold, the IC50 (VEGFR-2) was 32 ± 2 nM and the IC50 (EGFR) was 65 ± 4 nM.
With `C#Cc1cccc(Nc2ncnc3cc(OCCOC)c(OCCOC)cc23)c1` [Erlotinib, reference compound] the IC50 (A-549 (lung cancer)) was 30 ± 3 nM, the IC50 (MCF-7 (breast cancer)) was 40 ± 3 nM and the IC50 [2] was 30 ± 3 nM. For the same molecule, the IC50 (HT-29 (colon cancer)) was 30 ± 3 nM.
`COc1ccc(-c2noc(CSc3nc(-c4ccncc4)c(C#N)c(=O)[nH]3)n2)cc1` [Compound 10f, 2-(((3-(4-Methoxyphenyl)-1,2,4-oxadiazol-5-yl)methyl)thio)-6-oxo-4-(pyridin-4-yl)-1,6-dihydropyrimidine-5-carbonitrile] showed a viability at 96 h, 50 µM [1] of 91%, an IC50 (A-549 (lung cancer)) of 52 ± 4 nM and an IC50 (MCF-7 (breast cancer)) of 49 ± 3 nM. The IC50 [2] was 50 ± 4 nM, the IC50 (HT-29 (colon cancer)) was 54 ± 4 nM and the GI50 [3] was 51 nM.
`COc1ccc(-c2noc(CSc3nc(-c4ccccc4)c(C#N)c(=O)[nH]3)n2)cc1` [Compound 10c, 2-(((3-(4-Methoxyphenyl)-1,2,4-oxadiazol-5-yl)methyl)thio)-6-oxo-4-phenyl-1,6-dihydropyrimidine-5-carbonitrile] showed a viability at 96 h, 50 µM [1] of 92%, an IC50 (A-549 (lung cancer)) of 49 ± 3 nM and an IC50 (MCF-7 (breast cancer)) of 44 ± 3 nM. It also gave an IC50 [2] of 44 ± 3 nM, an IC50 (HT-29 (colon cancer)) of 51 ± 3 nM and a GI50 [3] of 47 nM.
Work on `N#Cc1c(-c2ccccc2)nc(SCc2nc(-c3ccc(Cl)cc3)no2)[nH]c1=O` [Compound 10b, 2-(((3-(4-Chlorophenyl)-1,2,4-oxadiazol-5-yl)methyl)thio)-6-oxo-4-phenyl-1,6-dihydropyrimidine-5-carbonitrile] yielded a viability at 96 h, 50 µM [1] of 90%, an IC50 (A-549 (lung cancer)) of 65 ± 5 nM and an IC50 (MCF-7 (breast cancer)) of 61 ± 5 nM. The IC50 [2] was 61 ± 5 nM, the IC50 (HT-29 (colon cancer)) was 66 ± 5 nM and the GI50 [3] was 63 nM. The “Reduction in antiproliferative potency relative to 10k (GI50)” value [3] was 2.9 fold.
With `N#Cc1c(-c2ccc(Cl)cc2)nc(SCc2nc(-c3ccccc3)no2)[nH]c1=O` [Compound 10g, 2-(((3-Phenyl-1,2,4-oxadiazol-5-yl)methyl)thio)-4-(4-chlorophenyl)-6-oxo-1,6-dihydropyrimidine-5-carbonitrile] the viability at 96 h, 50 µM [1] was 90%, the IC50 (A-549 (lung cancer)) was 39 ± 2 nM and the IC50 (MCF-7 (breast cancer)) was 35 ± 2 nM. For the same molecule, the IC50 [2] was 37 ± 2 nM, the IC50 (HT-29 (colon cancer)) was 40 ± 2 nM and the GI50 [3] was 38 nM.
